This is an account of results in patent US7473790B2 (Pfizer Inc., priority 2003, dated 2009).

The term IC50 denotes the concentration needed to halve the response being measured.

In this test the target is T1, HCV polymerase (Hepatitis C virus genotype 1b, UniProt P26663).
T1 construct: 2.5 pmoles (0.15 μg) HCV polymerase protein in a final volume of 75 μL
T1 sequence (P26663 2420-3010): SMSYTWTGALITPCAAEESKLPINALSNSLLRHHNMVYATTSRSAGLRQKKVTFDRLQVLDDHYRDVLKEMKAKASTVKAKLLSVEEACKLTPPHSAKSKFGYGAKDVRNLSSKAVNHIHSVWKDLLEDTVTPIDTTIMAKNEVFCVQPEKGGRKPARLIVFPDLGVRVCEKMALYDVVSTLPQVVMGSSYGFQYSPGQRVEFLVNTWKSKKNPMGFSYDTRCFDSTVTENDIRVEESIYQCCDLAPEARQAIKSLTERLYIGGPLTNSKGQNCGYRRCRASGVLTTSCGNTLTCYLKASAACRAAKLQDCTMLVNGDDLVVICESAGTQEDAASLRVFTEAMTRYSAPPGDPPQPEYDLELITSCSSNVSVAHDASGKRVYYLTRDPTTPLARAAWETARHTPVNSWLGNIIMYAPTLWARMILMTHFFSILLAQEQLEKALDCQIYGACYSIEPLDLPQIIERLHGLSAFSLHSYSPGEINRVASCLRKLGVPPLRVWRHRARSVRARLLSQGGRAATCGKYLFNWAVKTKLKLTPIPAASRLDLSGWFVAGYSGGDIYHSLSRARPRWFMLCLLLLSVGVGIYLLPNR
The experiment in a line: HCV polymerase primer/template-directed transcription assay (32P-GTP incorporation, filter binding). The test is classed as biochemical. To be noted: recombinant HCV polymerase; 30 minutes at 30° C.; concentration giving 50% inhibition of polymerase-directed transcription; read-out: IC50. An outline of the steps: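 IC50s come from triplicate cpm, refit with an enzyme-concentration (30 nM) correction when under 200 nM. Reactions ran 30 min at 30° C in Tris pH 7.2 with MgCl2, 1 μM GTP spiked with α-32P-GTP, biotin-dG12 primer and poly(rC)300 template, with 1% DMSO. Incorporated label was collected on DE filtermats and counted.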
Take `CCNC(=O)C(C)(C)c1ccc(CCC2(C3CCCC3)CC(O)=C(Cc3nc4ncc(C)cn4n3)C(=O)O2)cc1F` (stereo not shown) [A(268), 2-(4-{2-[2-Cyclopentyl-4-hydroxy-5-(6-methyl-[1,2,4]triazolo[1,5-a]pyrimidin-2-ylmethyl)-6-oxo-3,6-dihydro-2H-pyran-2-yl]-ethyl}-2-fluoro-phenyl)-N-ethyl-isobutyramide]: the IC50 stood at 680 nM.
The figure for `Cc1cnc2nc(CC3=C(O)CC(CCc4ccc(C(C)(C)CO)c(F)c4)(C4CCCC4)OC3=O)nn2c1` (stereo not shown) [A(269), 6-Cyclopentyl-6-{2-[3-fluoro-4-(2-hydroxy-1,1-dimethyl-ethyl)-phenyl]-ethyl}-4-hydroxy-3-(6-methyl-[1,2,4]triazolo[1,5-a]pyrimidin-2-ylmethyl)-5,6-dihydro-pyran-2-one] is 26 nM.
The figure for `COC(=O)C(C)(C)c1ccc(CCC2(C3CCCC3)CC(O)=C(Cc3nc4ncc(C)cn4n3)C(=O)O2)cc1F` (stereo not shown) [A(270), 2-(4-{2-[2-Cyclopentyl-4-hydroxy-5-(6-methyl-[1,2,4]triazolo[1,5-a]pyrimidin-2-ylmethyl)-6-oxo-3,6-dihydro-2H-pyran-2-yl]-ethyl}-2-fluoro-phenyl)-2-methyl-propionic acid methyl ester] is 37 nM; for `COc1ccc(CCC2(C3CCCC3)CC(O)=C(Cc3nc4nc(C)cc(C)n4n3)C(=O)O2)cc1F` (stereo not shown) [B(01)] it is 15 nM.
Take `CCOc1ccc(CCC2(C3CCCC3)CC(O)=C(Cc3nc4nc(C)cc(C)n4n3)C(=O)O2)cc1F` (stereo not shown) [B(02), 6-Cyclopentyl-3-(5,7-dimethyl-[1,2,4]triazolo[1,5-a]pyrimidin-2-ylmethyl)-6-[2-(4-ethoxy-3-fluoro-phenyl)-ethyl]-4-hydroxy-5,6-dihydro-pyran-2-one]: the IC50 was determined as 27 nM.
The figure for `Cc1cc(C)n2nc(CC3=C(O)CC(CCc4cccc(C(C)(C)C)c4)(C4CCCC4)OC3=O)nc2n1` (stereo not shown) [B(03), 6-[2-(3-tert-Butyl-phenyl)-ethyl]-6-cyclopentyl-3-(5,7-dimethyl-[1,2,4]triazolo[1,5-a]pyrimidin-2-ylmethyl)-4-hydroxy-5,6-dihydro-pyran-2-one] is 5 nM; for `Cc1cc(C)n2nc(CC3=C(O)CC(CCc4ccc(-c5c(C)noc5C)cc4)(C4CCCC4)OC3=O)nc2n1` (stereo not shown) [B(04), 6-Cyclopentyl-6-{2-[4-(3,5-dimethyl-isoxazol-4-yl)-phenyl]-ethyl}-3-(5,7-dimethyl-[1,2,4]triazolo[1,5-a]pyrimidin-2-ylmethyl)-4-hydroxy-5,6-dihydro-pyran-2-one] it is 24 nM.
The figure for `COc1ccc(CCC2(C3CCCC3)CC(O)=C(Cc3ccc(-c4csnn4)cc3)C(=O)O2)cc1Cl` (stereo not shown) [B(05), 6-[2-(3-Chloro-4-methoxy-phenyl)-ethyl]-6-cyclopentyl-4-hydroxy-3-(4-[1,2,3]thiadiazol-4-yl-benzyl)-5,6-dihydro-pyran-2-one] is 130 nM; for `COc1ccc(CCC2(C3CCCC3)CC(O)=C(Cc3ccc(-n4c(C)ccc4C)cc3)C(=O)O2)cc1Cl` (stereo not shown) [B(06), 6-[2-(3-Chloro-4-methoxy-phenyl)-ethyl]-6-cyclopentyl-3-[4-(2,5-dimethyl-pyrrol-1-yl)-benzyl]-4-hydroxy-5,6-dihydro-pyran-2-one] it is 150 nM; for `CCc1cc(CCC2(C3CCCC3)CC(O)=C(Cc3nc4nc(C)cc(C)n4n3)C(=O)O2)ccc1O` (stereo not shown) [B(07), 6-Cyclopentyl-3-(5,7-dimethyl-[1,2,4]triazolo[1,5-a]pyrimidin-2-ylmethyl)-6-[2-(3-ethyl-4-hydroxy-phenyl)-ethyl]-4-hydroxy-5,6-dihydro-pyran-2-one] it is 1 nM.
With `Cc1cc(C)n2nc(CC3=C(O)CC(CCc4ccc(O)c(C(C)(C)C)c4)(C4CCCC4)OC3=O)nc2n1` (stereo not shown) [B(08), 6-[2-(3-tert-Butyl-4-hydroxy-phenyl)-ethyl]-6-cyclopentyl-3-(5,7-dimethyl-[1,2,4]triazolo[1,5-a]pyrimidin-2-ylmethyl)-4-hydroxy-5,6-dihydro-pyran-2-one] the figure was 13 nM.
On to `COc1ccc(CCC2(C3CCCC3)CC(O)=C(Cc3nc4nc(C)cc(C)n4n3)C(=O)O2)cc1C` (stereo not shown) [B(09), 6-Cyclopentyl-3-(5,7-dimethyl-[1,2,4]triazolo[1,5]pyrimidin-2-ylmethyl)-4-hydroxy-6-[2-(4-methoxy-3-methyl-phenyl)-ethyl]-5,6-dihydro-pyran-2-one], for which the IC50 is 54 nM.
The figure for `CCOc1ccc(CCC2(C3CCCC3)CC(O)=C(Cc3nc4nc(C)cc(C)n4n3)C(=O)O2)cc1C` (stereo not shown) [B(10), 6-Cyclopentyl-3-(5,7-dimethyl-[1,2,4]triazolo[1,5]pyrimidin-2-ylmethyl)-6-[2-(4-ethoxy-3-methyl-phenyl)-ethyl]-4-hydroxy-5,6-dihydro-pyran-2-one] is 53 nM.
Consider `Cc1cc(C)n2nc(CC3=C(O)CC(CCc4ccc(OC(C)C)c(C)c4)(C4CCCC4)OC3=O)nc2n1` (stereo not shown) [B(11), 6-Cyclopentyl-3-(5,7-dimethyl-[1,2,4]triazolo[1,5]pyrimidin-2-ylmethyl)-4-hydroxy-6-[2-(4-isopropoxy-3-methyl-phenyl)-ethyl]-5,6-dihydro-pyran-2-one], for which the IC50 is 19 nM.
The figure for `CCc1cccc(CCC2(C3CCCC3)CC(O)=C(Cc3nc4nc(C)cc(C)n4n3)C(=O)O2)c1` (stereo not shown) [B(12), 6-Cyclopentyl-3-(5,7-dimethyl-[1,2,4]triazolo[1,5]pyrimidin-2-ylmethyl)-6-[2-(3-ethyl-phenyl)-ethyl]-4-hydroxy-5,6-dihydro-pyran-2-one] is 26 nM; for `COc1ccc(CCC2(C3CCCC3)CC(O)=C(Cc3nc4nc(C)cc(C)n4n3)C(=O)O2)cc1Cl` (stereo not shown) [B(13), 6-[2-(3-Chloro-4-methoxy-phenyl)-ethyl]-6-cyclopentyl-3-(5,7-dimethyl-[1,2,4]triazolo[1,5-a]pyrimidin-2-ylmethyl)-dihydro-pyran-2,4-dione] it is 20 nM; for `CC(C)Oc1ccc(CCC2(C3CCCC3)CC(O)=C(Cc3nc4cc(Cl)ccc4n3C(C)C)C(=O)O2)cc1F` (stereo not shown) [B(14), 3-(5-Chloro-1-isopropyl-1H-benzoimidazol-2-ylmethyl)-6-cyclopentyl-6-[2-(3-fluoro-4-isopropoxy-phenyl)-ethyl]-4-hydroxy-5,6-dihydro-pyran-2-one] it is 630 nM.
The figure for `CC(C)Oc1ccc(CCC2(C3CCCC3)CC(O)=C(Cc3nc4ccccc4n3C)C(=O)O2)cc1F` (stereo not shown) [B(16), 6-Cyclopentyl-6-[2-(3-fluoro-4-isopropoxy-phenyl)-ethyl]-4-hydroxy-3-(1-methyl-1H-benzoimidazol-2-ylmethyl)-5,6-dihydro-pyran-2-one] is 900 nM; for `COc1ccc(CC2=C(O)CC(CCc3ccc(OC)c(Cl)c3)(C3CCCC3)OC2=O)cc1` (stereo not shown) [B(17), 6-[2-(3-Chloro-4-methoxy-phenyl)-ethyl]-6-cyclopentyl-4-hydroxy-3-(4-methoxy-benzyl)-5,6-dihydro-pyran-2-one] it is 1100 nM.
The figure for `Cc1cc(C)n2nc(CC3=C(O)CC(CCc4ccc(OC(C)C)c(F)c4)(C4CCCC4)OC3=O)nc2n1` (stereo not shown) [B(18)] is 21 nM; for `Cc1cc(C)n2nc(CC3=C(O)CC(CCc4ccc(F)c(Cl)c4)(C4CCCC4)OC3=O)nc2n1` (stereo not shown) [B(19), 6-[2-(3-Chloro-4-fluoro-phenyl)-ethyl]-6-cyclopentyl-3-(5,7-dimethyl-[1,2,4]triazolo[1,5]pyrimidin-2-ylmethyl)-4-hydroxy-5,6-dihydro-pyran-2-one] it is 60 nM.
`CCOc1ccc(CCC2(C3CCCC3)CC(O)=C(Cc3nc4nc(C)cc(C)n4n3)C(=O)O2)cc1Cl` (stereo not shown) [B(20), 6-[2-(3-Chloro-4-ethoxy-phenyl)-ethyl]-6-cyclopentyl-3-(5,7-dimethyl-[1,2,4]triazolo[1,5]pyrimidin-2-ylmethyl)-4-hydroxy-5,6-dihydro-pyran-2-one]: the IC50 amounted to 4 nM.
The figure for `COc1ccc(CCC2(C3CCCC3)CC(O)=C(Cc3ccc(S(C)(=O)=O)cc3)C(=O)O2)cc1Cl` (stereo not shown) [B(21), 6-[2-(3-Chloro-4-methoxy-phenyl)-ethyl]-6-cyclopentyl-4-hydroxy-3-(4-methanesulfonyl-benzyl)-5,6-dihydro-pyran-2-one] is 400 nM; for `COc1ccc(CCC2(C3CCCC3)CC(O)=C(Cc3ccc(C#N)cc3)C(=O)O2)cc1Cl` (stereo not shown) [B(22), 4-{6-[2-(3-Chloro-4-methoxy-phenyl)-ethyl]-6-cyclopentyl-4-hydroxy-2-oxo-5,6-dihydro-2-pyran-3-ylmethyl}-benzonitrile] it is 1200 nM.
As for `COc1ccc(CCC2(C3CCCC3)CC(O)=C(Cc3cccc(C#N)c3)C(=O)O2)cc1Cl` (stereo not shown) [B(23), 3-{6-[2-(3-Chloro-4-methoxy-phenyl)-ethyl]-6-cyclopentyl-4-hydroxy-2-oxo-5,6-dihydro-2-pyran-3-ylmethyl}-benzonitrile], the IC50 came to 870 nM.
With `COc1ccc(CCC2(C3CCCC3)CC(O)=C(Cc3ccc(-n4cccn4)cc3)C(=O)O2)cc1Cl` (stereo not shown) [B(24), 6-[2-(3-Chloro-4-methoxy-phenyl)-ethyl]-6-cyclopentyl-4-hydroxy-3-(4-pyrazol-1-yl-benzyl)-5,6-dihydro-pyran-2-one] the figure was 140 nM.
The figure for `COc1ccc(CCC2(C3CCCC3)CC(O)=C(Cc3ccc(-n4cncn4)cc3)C(=O)O2)cc1Cl` (stereo not shown) [B(25), 6-[2-(3-Chloro-4-methoxy-phenyl)-ethyl]-6-cyclopentyl-4-hydroxy-3-(4-[1,2,4]triazol-1-yl-benzyl)-5,6-dihydro-pyran-2-one] is 240 nM; for `Cn1c(CC2=C(O)CC(CCc3ccc(OCC4CC4)c(Cl)c3)(C3CCCC3)OC2=O)nc2ccccc21` (stereo not shown) [B(26), 6-[2-(3-Chloro-4-cyclopropylmethoxy-phenyl)-ethyl]-6-cyclopentyl-4-hydroxy-3-(1-methyl-1H-benzoimidazol-2-ylmethyl)-5,6-dihydro-pyran-2-one] it is 2300 nM.
